Data published in patent US20060276464A1, “Diarylsulfone sulfonamides and use thereof” (Wyeth, priority 2005, published 2006).
Read-outs that look alike come from different tables or passages of the source.

How the values were obtained:
SFRP-1 [1] = molecular target: T1, SFRP-1 (Homo sapiens, UniProt Q8N474); assay: Fluorescence polarization binding assay (competitive displacement of a probe compound from SFRP-1); settings: fluorescence anisotropy, 45 nM SFRP-1, 20 nM probe;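 note: test compound competes with a fluorescent probe held by SFRP-1, seen as a drop in probe anisotropy after incubation in darkness, with anisotropy as function of rising compound dose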
T1 sequence (Q8N474 32-314): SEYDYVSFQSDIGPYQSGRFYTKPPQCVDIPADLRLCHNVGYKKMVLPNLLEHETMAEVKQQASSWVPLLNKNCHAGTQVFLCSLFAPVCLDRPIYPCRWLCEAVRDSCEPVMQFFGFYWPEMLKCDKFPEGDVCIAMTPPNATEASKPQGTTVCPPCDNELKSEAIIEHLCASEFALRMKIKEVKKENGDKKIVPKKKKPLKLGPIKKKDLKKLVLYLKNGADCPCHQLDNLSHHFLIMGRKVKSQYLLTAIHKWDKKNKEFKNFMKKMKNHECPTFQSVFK

SFRP-1 [2] = molecular target: T1, SFRP-1; assay: Cell-based assay for in vitro measurement of SFRP-1/SARP2 antagonist activity (U2OS cells co-transfected with 16x TCF-tk-Luciferase reporter, Wnt and hSFRP-1); settings: for fold induction at 10 µM / fold induction at 15 µM: U2OS; for fold induction at 10 µM: read-out: Fold Induction with SFRP-1, U2OS cells, single dose 10 μM, luciferase reporter, fold induction over SFRP-1 control;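 for all read-outs here: U2OS cells co-transfected with a TCF-tk luciferase reporter, a Wnt vector, hSFRP-1 or empty vector and CMV-βgal, luciferase luminescence read in cell lysates alongside βgal activity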
[3] = read-out: Fold Induction with SFRP-1, Conc 15 μM, single dose, luciferase reporter, fold induction over SFRP-1 control, cells with SFRP-1
[4] = read-out: Fold Induction without SFRP-1, Conc 15 μM, single dose, luciferase reporter, cells without SFRP-1 (specificity control)

SMILES	IC50 (SFRP-1 [1]) [nM]	EC50 (SFRP-1 [2]) [nM]	fold induction at 10 µM (SFRP-1 [2])	also measured
CN(CCNS(=O)(=O)c1cc(S(=O)(=O)c2ccccc2)ccc1C(F)(F)F)CC(=O)OC(C)(C)C [Example 962, tert-butyl N-methyl-N-[2-({[5-(phenylsulfonyl)-2-(trifluoromethyl)phenyl]sulfonyl}amino)ethyl]glycinate]	3000	2860	2.7	–
CN(CCNS(=O)(=O)c1cc(S(=O)(=O)c2ccccc2)ccc1C(F)(F)F)C(=O)C(C)(C)C [Example 852, N,2,2-trimethyl-N-[2-({[5-(phenylsulfonyl)-2-(trifluoromethyl)phenyl]sulfonyl}amino)ethyl]propanamide]	300	1650	3.3	–
CC(C)c1ccc(S(=O)(=O)c2ccc(N3CCNCC3)cc2)cc1S(=O)(=O)NC1CCOCC1 [Example 628, 2-isopropyl-5-[(4-piperazin-1-ylphenyl)sulfonyl]-N-(tetrahydro-2H-pyran-4-yl)benzenesulfonamide]	3000	–	–	fold induction at 15 µM (SFRP-1 [2]; [3]): 3.2; fold induction at 15 µM (SFRP-1 [2]; [4]): 1.1
O=C(c1ccc(C(F)(F)F)c(F)c1)N1CCC(NS(=O)(=O)c2cc(S(=O)(=O)c3ccccc3)ccc2C(F)(F)F)CC1 [Example 711, N-{1-[3-fluoro-4-(trifluoromethyl)benzoyl]piperidin-4-yl}-5-(phenylsulfonyl)-2-(trifluoromethyl)benzenesulfonamide]	300	9400	3.3	–
COc1ccc(NC(=O)N(C)CCNS(=O)(=O)c2cc(S(=O)(=O)c3ccccc3)ccc2C(F)(F)F)cc1 [Example 830, N-{2-[{[(4-methoxyphenyl)amino]carbonyl}(methyl)amino]ethyl}-5-(phenylsulfonyl)-2-(trifluoromethyl)benzenesulfonamide]	600	1870	3.3	–
O=S(=O)(NCc1ccc(N2CCCC2)nc1)c1cc(S(=O)(=O)c2ccccc2)ccc1C(F)(F)F [Example 1032, 5-(phenylsulfonyl)-N-[(6-pyrrolidin-1-ylpyridin-3-yl)methyl]-2-(trifluoromethyl)benzenesulfonamide]	500	1440	–	–
CC(C)c1ccc(S(=O)(=O)c2ccc(F)cc2)cc1S(=O)(=O)NC1CCN(C(=S)Nc2cccc([N+](=O)[O-])c2)CC1 [Example 699, 4-[({5-[(4-fluorophenyl)sulfonyl]-2-isopropylphenyl}sulfonyl)amino]-N-(3-nitrophenyl)piperidine-1-carbothioamide]	1600	9800	2.9	–
CC(=O)N1CCC(NS(=O)(=O)c2cc(S(=O)(=O)c3ccc(F)cc3)ccc2C(C)C)CC1 [Example 529, N-(1-acetylpiperidin-4-yl)-5-[(4-fluorophenyl)sulfonyl]-2-isopropylbenzenesulfonamide]	500	–	–	fold induction at 15 µM (SFRP-1 [2]; [3]): 2.8; fold induction at 15 µM (SFRP-1 [2]; [4]): 1
COC(=O)C1CCCC(NS(=O)(=O)c2cc(S(=O)(=O)c3ccccc3)ccc2C(F)(F)F)C1 (stereo not drawn) [Example 945, methyl 3-({[5-(phenylsulfonyl)-2-(trifluoromethyl)phenyl]sulfonyl}amino)cyclohexanecarboxylate]	900	1120	2.9	–
O=C(O)c1cccc(N2CCC(CCNS(=O)(=O)c3cc(S(=O)(=O)c4ccccc4)ccc3C(F)(F)F)CC2)c1 [Example 957, 3-{4-[2-({[5-(phenylsulfonyl)-2-(trifluoromethyl)phenyl]sulfonyl}amino)ethyl]piperidin-1-yl}benzoic acid]	300	1390	3.9	–
COC(=O)c1ccc(CNS(=O)(=O)c2cc(S(=O)(=O)c3ccccc3)ccc2C(F)(F)F)cc1 [Example 950, methyl 4-[({[5-(phenylsulfonyl)-2-(trifluoromethyl)phenyl]sulfonyl}amino)methyl]benzoate]	1800	1840	2.6	–
CC(C)(C)OC(=O)N1CCC(NC(=O)NCCNS(=O)(=O)c2cc(S(=O)(=O)c3ccccc3)ccc2C(F)(F)F)CC1 [Example 1046, tert-butyl 4-[({[2-({[5-(phenylsulfonyl)-2-(trifluoromethyl)phenyl]sulfonyl}amino)ethyl]amino}carbonyl)amino]piperidine-1-carboxylate]	800	3440	–	–
CC(C)c1ccc(S(=O)(=O)c2ccc3c(ccn3C)c2)cc1S(=O)(=O)NCCc1ccccn1 [Example 597, 2-isopropyl-5-[(1-methyl-1H-indol-5-yl)sulfonyl]-N-(2-pyridin-2-ylethyl)benzenesulfonamide]	400	–	–	fold induction at 15 µM (SFRP-1 [2]; [3]): 3.7; fold induction at 15 µM (SFRP-1 [2]; [4]): 1.3
CC(C)(C)c1ccc(C(=O)N2CCC(NS(=O)(=O)c3cc(S(=O)(=O)c4ccccc4)ccc3C(F)(F)F)CC2)cc1 [Example 718, N-[1-(4-tert-butylbenzoyl)piperidin-4-yl]-5-(phenylsulfonyl)-2-(trifluoromethyl)benzenesulfonamide]	400	214	6.7	–
CS(=O)(=O)N1CCC[C@H]1C(=O)N1CCC(NS(=O)(=O)c2cc(S(=O)(=O)c3ccccc3)ccc2C(F)(F)F)CC1 [Example 1075, N-{1-[1-(methylsulfonyl)-L-prolyl]piperidin-4-yl}-5-(phenylsulfonyl)-2-(trifluoromethyl)benzenesulfonamide]	30	114	–	–
O=S(=O)(NC1CCNCC1)c1cc(S(=O)(=O)c2ccc(NCCO)cc2)ccc1C(F)(F)F [Example 844, 5-({4-[(2-hydroxyethyl)amino]phenyl}sulfonyl)-N-piperidin-4-yl-2-(trifluoromethyl)benzenesulfonamide]	160	500	4.4	–
Cc1cc(N(C)C)ccc1S(=O)(=O)c1ccc(C(C)C)c(S(=O)(=O)NCCc2ccccn2)c1 [Example 600, 5-{[4-(dimethylamino)-2-methylphenyl]sulfonyl}-2-isopropyl-N-(2-pyridin-2-ylethyl)benzenesulfonamide]	2000	–	–	fold induction at 15 µM (SFRP-1 [2]; [3]): 3; fold induction at 15 µM (SFRP-1 [2]; [4]): 1.1
CC(=O)c1cccc(S(=O)(=O)c2ccc(C(C)C)c(S(=O)(=O)NCCc3ccccn3)c2)c1C [Example 594, 5-[(3-acetyl-2-methylphenyl)sulfonyl]-2-isopropyl-N-(2-pyridin-2-ylethyl)benzenesulfonamide]	4000	–	–	fold induction at 15 µM (SFRP-1 [2]; [3]): 2.3; fold induction at 15 µM (SFRP-1 [2]; [4]): 1
CN(CCNS(=O)(=O)c1cc(S(=O)(=O)c2ccccc2)ccc1C(F)(F)F)C(=O)NC1CCN(C(=O)CCC(=O)O)CC1 [Example 980, 4-{4-[({methyl[2-({[5-(phenylsulfonyl)-2-(trifluoromethyl)phenyl]sulfonyl}amino)ethyl]amino}carbonyl)amino]piperidin-1-yl}-4-oxobutanoic acid]	400	853	–	–
O=S(=O)(NC1CCNC1)c1cc(S(=O)(=O)c2ccccc2)ccc1C(F)(F)F (stereo not drawn) [Example 840, 5-(phenylsulfonyl)-N-pyrrolidin-3-yl-2-(trifluoromethyl)benzenesulfonamide]	800	–	2.9	–
O=C(O)CCC(=O)N1CCC(NS(=O)(=O)c2cc(S(=O)(=O)c3ccccc3)ccc2C(F)(F)F)C1 (stereo not drawn) [Example 886, 4-oxo-4-[3-({[5-(phenylsulfonyl)-2-(trifluoromethyl)phenyl]sulfonyl}amino)pyrrolidin-1-yl]butanoic acid]	150	1330	2.7	–
O=S(=O)(NCc1ccc(N2CCOCC2)nc1)c1cc(S(=O)(=O)c2ccccc2)ccc1C(F)(F)F [Example 1033, N-[(6-morpholin-4-ylpyridin-3-yl)methyl]-5-(phenylsulfonyl)-2-(trifluoromethyl)benzenesulfonamide]	500	1520	–	–
Cc1cc(C)c(S(=O)(=O)c2ccccc2)cc1S(=O)(=O)NCCn1ccnc1 [Example 324, N-[2-(1H-imidazol-1-yl)ethyl]-2,4-dimethyl-5-(phenylsulfonyl)benzenesulfonamide]	900	–	–	fold induction at 15 µM (SFRP-1 [2]; read-out: Fold Induction with SFRP-1, Conc 15 μM, with SFRP-1, fold induction over SFRP-1 control, single dose): 3.2; fold induction at 15 µM (SFRP-1 [2]; read-out: Fold Induction without SFRP-1, Conc 15 μM, without SFRP-1, single dose): 0.9
Cc1nn(C)c(Cl)c1S(=O)(=O)c1ccc(C(C)C)c(S(=O)(=O)NC2CCOCC2)c1 [Example 569, 5-[(5-chloro-1,3-dimethyl-1H-pyrazol-4-yl)sulfonyl]-2-isopropyl-N-(tetrahydro-2H-pyran-4-yl)benzenesulfonamide]	1500	–	–	fold induction at 15 µM (SFRP-1 [2]; read-out: Fold Induction with SFRP-1): 3.8; fold induction at 15 µM (SFRP-1 [2]; read-out: Fold Induction without SFRP-1): 1.1
O=C(O)CCCC(=O)N1CCC(CNS(=O)(=O)c2cc(S(=O)(=O)c3ccccc3)ccc2C(F)(F)F)CC1 [Example 903, 5-oxo-5-{4-[({[5-(phenylsulfonyl)-2-(trifluoromethyl)phenyl]sulfonyl}amino)methyl]piperidin-1-yl}pentanoic acid]	70	795	3.5	–
